According to the supplement of paper PMC12137928:
Counter-ions that a name gives are not always drawn.

Columns and labels:
[1] = test system: HCT116; conditions: 72 h
How it was run: (§1)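 HCT116 cells were seeded at 250 per well in 1536-well plates and left 5 h to attach. CellTiter-Glo luminescence was scaled to vehicle (0%) and positive control (-100%), then pattern-corrected. IC50 and maximal efficacy came from four-parameter Hill fits.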

[2] = test system: HCT116; experiment: efficacy (maximum % inhibition of viability vs DMSO); higher = more cytotoxic; conditions: 72 h
How it was run: as §1

Row | IC50 cell viability ([1]; ICRF193 0 nM) | IC50 cell viability ([1]; ICRF193 200 nM) | Compound | efficacy ([2]; ICRF193 0 nM) | efficacy ([2]; ICRF193 200 nM)
1 | 18.3 µM | 18.3 µM | CCN(CC)Cc1cc(Nc2ccnc3cc(Cl)ccc23)ccc1O [Amodiaquin dihydrochloride dihydrate] | 85.2% | 101%
2 | 20.6 µM | 20.6 µM | COc1cc(NS(C)(=O)=O)ccc1Nc1c2ccccc2nc2ccccc12 [Amsacrine] | 141% | 128%
3 | 20.6 µM | 29.1 µM | CN1CCc2cccc3c2[C@H]1Cc1ccc(O)c(O)c1-3 [Apomorphine] | 116% | 107%
4 | 23.1 µM | 18.3 µM | C[C@@H](O[C@H]1OCCN(Cc2n[nH]c(=O)[nH]2)[C@H]1c1ccc(F)cc1)c1cc(C(F)(F)F)cc(C(F)(F)F)c1 [Aprepitant] | 113% | 102%
5 | 29.1 µM | 16.4 µM | COC(=O)C1=C(C)NC(C)=C(C(=O)OCC(C)=O)C1c1ccccc1[N+](=O)[O-] (configuration not stated) [Aranidipine] | 83.8% | 88.9%
6 | > 45.8 µM | 0.651 µM | [O-][n+]1cccc(/C(Cl)=N/OC[C@H](O)CN2CCCCC2)c1 [Arimoclomol] | – | 65.4%
7 | 11.6 µM | 9.2 µM | O=C1CCc2ccc(OCCCCN3CCN(c4cccc(Cl)c4Cl)CC3)cc2N1 [Aripiprazole] | 52.1% | 59.1%
8 | > 45.8 µM | 29.1 µM | CNCC[C@@H](Oc1ccccc1C)c1ccccc1 [Atomoxetine hydrochloride] | – | 81.3%
9 | 18.3 µM | 18.3 µM | CC(C)c1c(C(=O)Nc2ccccc2)c(-c2ccccc2)c(-c2ccc(F)cc2)n1CC[C@@H](O)C[C@@H](O)CC(=O)O [Atorvastatin calcium] | 60.2% | 70.6%
10 | > 45.8 µM | 18.3 µM | O=C1C(O)=C([C@H]2CC[C@H](c3ccc(Cl)cc3)CC2)C(=O)c2ccccc21 [Atovaquone] | – | 54.1%
11 | 2.59 µM | 2.59 µM | CC(=O)OC[C@H]1O[C@@H]([S-])[C@H](OC(C)=O)[C@@H](OC(C)=O)[C@@H]1OC(C)=O.CCP(CC)CC.[Au+] [Auranofin] | 102% | 96.8%
12 | > 45.8 µM | 0.00461 µM | CC[C@H](C)[C@@H]([C@@H](CC(=O)N1CCC[C@H]1[C@H](OC)[C@@H](C)C(=O)NCCc1ccccc1)OC)N(C)C(=O)[C@@H](NC(=O)[C@H](C(C)C)N(C)C)C(C)C [Auristatin PE] | – | 42.4%
13 | 23.1 µM | 20.6 µM | CNC(=O)c1ccccc1Sc1ccc2c(/C=C/c3ccccn3)n[nH]c2c1 [Axitinib] | 57.5% | 62.1%
14 | > 45.8 µM | 0.206 µM | O=C(CCCN1CCN(c2ccccn2)CC1)c1ccc(F)cc1 [Azaperone] | – | 87.6%
15 | 2.91 µM | 3.66 µM | Cn1cnc([N+](=O)[O-])c1Sc1ncnc2[nH]cnc12 [Azathioprine] | 77.4% | 85.9%
16 | > 45.8 µM | 29.1 µM | CN1CCCC(n2nc(Cc3ccc(Cl)cc3)c3ccccc3c2=O)CC1 (configuration not stated) [Azelastine hydrochloride] | – | 65.4%
17 | 23.1 µM | 18.3 µM | CC1=C(C(=O)OC(C)C)C(c2cccc([N+](=O)[O-])c2)C(C(=O)OC2CN(C(c3ccccc3)c3ccccc3)C2)=C(N)N1 (configuration not stated) [Azelnidipine] | 124% | 98%
18 | > 45.8 µM | 20.6 µM | CC[C@H]1OC(=O)[C@H](C)[C@@H](O[C@H]2C[C@@](C)(OC)[C@@H](O)[C@H](C)O2)[C@H](C)[C@@H](O[C@@H]2O[C@H](C)C[C@H](N(C)C)[C@H]2O)[C@](C)(O)C[C@@H](C)CN(C)[C@H](C)[C@@H](O)[C@]1(C)O [Azithromycin] | – | 68.7%
19 | 20.6 µM | 23.1 µM | CCCCCCCCCCCCC[N+](C)(C)Cc1ccccc1 [BENZALKONIUM CHLORIDE] | 133% | 124%

Row | IC50 cell viability ([1]; ICRF193 0 nM) | IC50 cell viability ([1]; ICRF193 200 nM) | Compound | efficacy ([2]; ICRF193 0 nM) | efficacy ([2]; ICRF193 200 nM)
20 | 25.9 µM | > 45.8 µM | CCCC(=O)Nc1ncnc2c1ncn2[C@@H]1O[C@@H]2COP(=O)(O)O[C@H]2[C@H]1OC(=O)CCC [BUCLADESINE] | 48.8% | –
21 | > 45.8 µM | 23.1 µM | Cc1c(-c2ccc(O)cc2)n(Cc2ccc(OCCN3CCCCCC3)cc2)c2ccc(O)cc12 [Bazedoxifene] | – | 47.4%
22 | 23.1 µM | 20.6 µM | C[C@H]1C[C@H]2[C@@H]3CCC4=CC(=O)C=C[C@]4(C)[C@@]3(Cl)[C@@H](O)C[C@]2(C)[C@@]1(O)C(=O)CO [Beclomethasone] | 84.6% | 86.6%
23 | 1.3 µM | 1.16 µM | O=C(/C=C/c1cccc(S(=O)(=O)Nc2ccccc2)c1)NO [Belinostat] | 100% | 62.1%
24 | > 45.8 µM | 0.92 µM | NS(=O)(=O)c1cc2c(cc1C(F)(F)F)NC(Cc1ccccc1)NS2(=O)=O (configuration not stated) [Bendroflumethiazide] | – | 68.8%
25 | > 45.8 µM | 29.1 µM | CCc1oc2ccccc2c1C(=O)c1cc(I)c(O)c(I)c1 [Benziodarone] | – | 44.1%
26 | > 45.8 µM | 29.1 µM | O=C(Oc1cccc2cccnc12)c1ccccc1 [Benzoxiquine] | – | 70.8%
27 | > 45.8 µM | 29.1 µM | NS(=O)(=O)c1cc2c(cc1Cl)N=C(CSCc1ccccc1)NS2(=O)=O [Benzthiazide] | – | 77%
28 | 18.3 µM | 18.3 µM | CCCCCCCCCCCCCCCC[N+](C)(C)Cc1ccccc1 [Benzylhexadecyldimethylammonium chloride] | 128% | 129%
29 | 20.6 µM | 29.1 µM | CC(C)COCC(CN(Cc1ccccc1)c1ccccc1)N1CCCC1 (configuration not stated) [Bepridil] | 85.1% | 73.2%
30 | 23.1 µM | 10.3 µM | COc1ccc2cc3[n+](cc2c1OC)CCc1cc2c(cc1-3)OCO2 [Berberine] | 50.1% | 56.1%
31 | > 45.8 µM | 5.17 µM | CC(C)NCC(O)COc1ccc(CCOCC2CC2)cc1 (configuration not stated) [Betaxolol HCl] | – | 76.2%
32 | 20.6 µM | 14.6 µM | CNCCCCOc1ccccc1Cc1ccccc1 [Bifemelane] | 40.6% | 49.6%
33 | 25.9 µM | 16.4 µM | c1ccc(-c2ccc(C(c3ccccc3)n3ccnc3)cc2)cc1 (configuration not stated) [Bifonazole] | 75.7% | 75.2%
34 | 2.06 µM | > 45.8 µM | CC(=O)Oc1ccc(C(c2ccc(OC(C)=O)cc2)c2ccccn2)cc1 [Bisacodyl] | 48.1% | –
35 | 14.6 µM | 20.6 µM | CC(=O)Oc1ccc(C2(c3ccc(OC(C)=O)cc3)Oc3ccccc3NC2=O)cc1 [Bisoxatin acetate] | 66.7% | 89%
36 | 18.3 µM | 20.6 µM | Oc1c(Cl)cc(Cl)cc1Sc1cc(Cl)cc(Cl)c1O [Bithionol] | 92.2% | 108%
37 | 0.00517 µM | 0.00517 µM | CC(C)C[C@H](NC(=O)[C@H](Cc1ccccc1)NC(=O)c1cnccn1)B(O)O [Bortezomib] | 93.7% | 97.3%
38 | 29.1 µM | 18.3 µM | COc1cc(Nc2c(C#N)cnc3cc(OCCCN4CCN(C)CC4)c(OC)cc23)c(Cl)cc1Cl [Bosutinib] | 106% | 132%

Row | Compound | IC50 cell viability ([1]; ICRF193 0 nM) | IC50 cell viability ([1]; ICRF193 200 nM) | efficacy ([2]; ICRF193 0 nM) | efficacy ([2]; ICRF193 200 nM)
39 | COc1ccc(CCN2CCC(Nc3nc4ccccc4n3Cc3ccc(F)cc3)CC2)cc1 [Astemizole] | 20.6 µM | 16.4 µM | 108% | 102%
40 | CCC(C)C1O[C@]2(C=C[C@@H]1C)C[C@@H]1CC(C/C=C(\C)[C@@H](OC3C[C@H](OC)[C@@H](OC4C[C@H](OC)[C@@H](O)[C@H](C)O4)[C@H](C)O3)[C@@H](C)/C=C/C=C3\COC4[C@H](O)C(C)=CC(C(=O)O1)[C@]34O)O2 (some centres not stated) [Avermectin B1a] | 8.2 µM | > 45.8 µM | 92.3% | –
41 | CC(C)C[C@H]1C(=O)N2CCC[C@H]2[C@]2(O)O[C@](NC(=O)[C@@H]3C=C4c5cccc6[nH]c(Br)c(c56)C[C@H]4N(C)C3)(C(C)C)C(=O)N12 [BROMOCRIPTINE] | > 45.8 µM | 18.3 µM | – | 43.2%
